# Literature values as cited in patent US6821972B2, “3-heterocyclylpropanohydroxamic acid PCP inhibitors” (Pfizer Inc., priority 2001, dated 2004).
# Non-standard residues stand in square brackets, D forms with d. Residues, ends and D or L forms follow the SMILES beside them. *: point of attachment. Sta = CC(C)C[C@H](N)[C@@H](O)CC(=O)O; Isovaleryl = CC(C)CC(=O)*
# B1: α2-Macroglobulin: "α2-Macroglobulin, ovostatin, and fetal bovine serum appear to at least partially inhibit PCP activity" (protein, UniProt P01023 24-1474, looked up)
# Alpha-2-macroglobulin: SVSGKPQYMVLVPSLLHTETTEKGCVLLSYLNETVTVSASLESVRGNRSLFTDLEAENDVLHCVAFAVPKSSSNEEVMFLTVQVKGPTQEFKKRTTVMVKNEDSLVFVQTDKSIYKPGQTVKFRVVSMDENFHPLNELIPLVYIQDPKGNRIAQWQSFQLEGGLKQFSFPLSSEPFQGSYKVVVQKKSGGRTEHPFTVEEFVLPKFEVQVTVPKIITILEEEMNVSVCGLYTYGKPVPGHVTVSICRKYSDASDCHGEDSQAFCEKFSGQLNSHGCFYQQVKTKVFQLKRKEYEMKLHTEAQIQEEGTVVELTGRQSSEITRTITKLSFVKVDSHFRQGIPFFGQVRLVDGKGVPIPNKVIFIRGNEANYYSNATTDEHGLVQFSINTTNVMGTSLTVRVNYKDRSPCYGYQWVSEEHEEAHHTAYLVFSPSKSFVHLEPMSHELPCGHTQTVQAHYILNGGTLLGLKKLSFYYLIMAKGGIVRTGTHGLLVKQEDMKGHFSISIPVKSDIAPVARLLIYAVLPTGDVIGDSAKYDVENCLANKVDLSFSPSQSLPASHAHLRVTAAPQSVCALRAVDQSVLLMKPDAELSASSVYNLLPEKDLTGFPGPLNDQDNEDCINRHNVYINGITYTPVSSTNEKDMYSFLEDMGLKAFTNSKIRKPKMCPQLQQYEMHGPEGLRVGFYESDVMGRGHARLVHVEEPHTETVRKYFPETWIWDLVVVNSAGVAEVGVTVPDTITEWKAGAFCLSEDAGLGISSTASLRAFQPFFVELTMPYSVIRGEAFTLKATVLNYLPKCIRVSVQLEASPAFLAVPVEKEQAPHCICANGRQTVSWAVTPKSLGNVNFTVSAEALESQELCGTEVPSVPEHGRKDTVIKPLLVEPEGLEKETTFNSLLCPSGGEVSEELSLKLPPNVVEESARASVSVLGDILGSAMQNTQNLLQMPYGCGEQNMVLFAPNIYVLDYLNETQQLTPEIKSKAIGYLNTGYQRQLNYKHYDGSYSTFGERYGRNQGNTWLTAFVLKTFAQARAYIFIDEAHITQALIWLSQRQKDNGCFRSSGSLLNNAIKGGVEDEVTLSAYITIALLEIPLTVTHPVVRNALFCLESAWKTAQEGDHGSHVYTKALLAYAFALAGNQDKRKEVLKSLNEEAVKKDNSVHWERPQKPKAPVGHFYEPQAPSAEVEMTSYVLLAYLTAQPAPTSEDLTSATNIVKWITKQQNAQGGFSSTQDTVVALHALSKYGAATFTRTGKAAQVTIQSSGTFSSKFQVDNNNRLLLQQVSLPELPGEYSMKVTGEGCVYLQTSLKYNILPEKEEFPFALGVQTLPQTCDEPKAHTSFQISLSVSYTGSRSASNMAIVDVKMVSGFIPLKPTVKMLERSNHVSRTEVSSNHVLIYLDKVSNQTLSLFFTVLQDVPVRDLKPAIVKVYDYYETDEFAIAEYNAPCSKDLGNA
# B2: ovostatin: "α2-Macroglobulin, ovostatin, and fetal bovine serum appear to at least partially inhibit PCP activity" (protein, UniProt P20740 37-1473, looked up)
# Ovostatin: KEPEPQYVLMVPAVLQSDSPSQVCLQFFNLNQTISVRVVLEYDTINTTIFEKNTTTSNGLQCLNFMIPPVTSVSLAFISFTAKGTTFDLKERRSVMIWNMESFVFVQTDKPIYKPGQSVMFRVVALDFNFKPVQEMYPLIAVQDPQNNRIFQWQNVTSEINIVQIEFPLTEEPILGNYKIIVTKKSGERTSHSFLVEEYVLPKFDVTVTAPGSLTVMDSELTVKICAVYTYGQPVEGKVQLSVCRDFDSYGRCKKSPVCQSFTKDLDTDGCLSHILSSKVFELNRIGYKRNLDVKAIVTEKEQVCNLTATQSISITQVMSSLQFENVDHHYRRGIPYFGQIKLVDKDNSPISNKVIQLFVNNKNTHNFTTDINGIAPFSIDTSKIFDPELSLKALYKTSDQCHSEGWIEPSYPDASLSVQRLYSWTSSFVRIEPLWKDMSCGQKRMITVYYILNTEGYEHINIVNFYYVGMAKGKIVLTGEIKVNIQADQNGTFMIPLVVNEKMAPALRLLVYMLHPAKELVADSVRFSIEKCFKNKVQLQFSEKQMLTTSNVSLVIEAAANSFCAVRAVDKSMLLLKSETELSAETIYNLHPIQDLQGYIFNGLNLEDDPQDPCVSSDDIFHKGLYYRPLTSGLGPDVYQFLRDMGMKFFTNSKIRQPTVCTRETVRPPSYFLNAGFTASTHHVKLSAEVAREERGKRHILETIREFFPETWIWDIILINSTGKASVSYTIPDTITEWKASAFCVEELAGFGMSVPATLTAFQPFFVDLTLPYSIIHGEDFLVRANVFNYLNHCIKINVLLLESLDYQAKLISPEDDGCVCAKIRKSYVWNIFPKGTGDVLFSITAETNDDEACEEEALRNIRIDYRDTQIRALLVEPEGIRREETQNFLICMKDDVISQDVAIDLPTNVVEGSPRPSFSVVGDIMGTAIQNVHQLLQMPFGNGEQNMVLFAPNIYVLDYLDKTRQLSEDVKSKTIGYLVSGYQKQLSYKHPDGSYSTFGIRDKEGNTWLTAFVYKSFAEASRFIYIDDNVQAQTLIWLATKQKTDGCFQSTGILVNNAMKGGVENELSLSAYITIALLEAGHSMSHTVIRNAFYCLETASEKNITDIYTQALVAYAFCLAGKAEICESFLRELQKSAKEVDGSKYWEQNQRSAPEKSHLLDHVQSTDVEITSYVLLALLYKPNRSQEDLTKASAIVQWIIRQQNSYGGFASMQDTVVALQALAAYGAATYNSVTQNVIKINSKNTFEKVFTVNNENRLLLQQTPLPQVPGKYSLTVNGTGCVLIQTALRYNIHLPEGAFGFSLSVQTSNASCPRDQPGKFDIVLISSYTGKRSSSNMVIIDVKMLSGFVPVKSSLDQLIDDHTVMQVEYKKNHVLLYLGNILQKRRKEVTFSVEQDFVVTHPKPAPVQIYDYYETEEYAVAEYMSLCRGVVEEMG
# Legend:
# [1] = system: PCP
# [2] = system: endothelial cell invasion of basement membrane
# [3] = system: keratinocyte migration; conditions: collagen type I matrix, in vitro
molecule,measurement,setting,value
N.N.O=S(=O)(O)O [ammonium sulfate],inhibitory to PCP at concentrations of 1-10 mM,[1],inhibitory
concanavalin A,inhibitory to PCP at low concentrations,[1],inhibitory at low concentrations
N=C(N)NCCC[C@H](N)C(=O)O [arginine],inhibition of PCP (in words),[1],inhibited
Tris-HCl,inhibition of PCP activity by buffer,[1]; 0.2-0.5M,markedly inhibited activity
NCCCC[C@H](N)C(=O)O [lysine],inhibition of PCP (in words),[1],inhibited
"CC(C)CC(=O)N[C@H](C(=O)N[C@H](C(=O)N[C@@H](CC(C)C)[C@@H](O)CC(=O)N[C@@H](C)C(=O)N[C@@H](CC(C)C)[C@@H](O)CC(=O)O)C(C)C)C(C)C [pepstatin A, reference compound] (Isovaleryl-VV[Sta]A[Sta]-OH)",inhibition of PCP (in words),[1],relatively strong inhibitors
"CNC(=O)[C@H](Cc1ccccc1)NC(=O)[C@H](CC(C)C)[C@H](CSc1cccs1)C(=O)NO [BB94, (2S,3R)-5-methyl-3-{[(1S)-1-(methylcarbamoyl)-2-phenylethyl]carbamoyl}-2-[(2-thienylthio)methyl]hexanohydroxamic acid]",inhibition of endothelial cell invasion,[2],inhibits endothelial cell invasion of basement membrane
"CCCCCCCCCCCCOS(=O)(=O)[O-].[Na+] [SDS, reference compound]",inhibitory to PCP at low concentrations,[1],inhibitory at low concentrations
CNC(=O)[C@H](Cc1ccc(OC)cc1)NC(=O)[C@@H](CC(=O)NO)CC(C)C [SC44463],inhibition of keratinocyte migration,[3],completely inhibited
phosphate,inhibitory to PCP at concentrations of 1-10 mM,[1],inhibitory
"CC(C)C[C@H](NC(=O)[C@@H](NC(=O)N[C@@H](Cc1ccccc1)C(=O)O)[C@@H]1CCN=C(N)N1)C(=O)N[C@H](C=O)Cc1ccccc1 [chymostatin, reference compound]",inhibition of PCP (in words),[1],relatively strong inhibitors
"O[C@H](CS)[C@H](O)CS (racemic) [Dithiothreitol, reference compound]",inhibitory to PCP at low concentrations,[1],inhibitory at low concentrations
B1,inhibition of PCP (in words),[1],at least partially inhibit
B2,inhibition of PCP (in words),[1],at least partially inhibit
